# US5506217A, “Phosphonates as anti-cancer agents” (The University of British Columbia, priority 1994, dated 1996)
# How the values were obtained:
# [1] = system: HeL, a human erythroid leukemia; test: colonogenic cell survival assay; type: cell-based; conditions: 120 h, read-out: Colonies formed after 5-days (% of control)
# Method: (§1) Inhibition of colony formation in soft agar medium (colonogenic cell survival assay) is a more rigorous and direct measurement of cell kill or growth inhibition, and reflects the anti-cancer activity of the test compound. Briefly, tumor cells were cultured in petri dishes in methylcellulose, with or without a phosphonate test compound, and the number of colonies formed during a 5-day incubation period were counted.
# (§2) The anti-cancer activity of the phosphonate of the following formula: [drawing 16] against human leukemia and lymphoma was also studied using the colonogenic cell survival assay. DHL4, a human B cell lymphoma; HeL, a human erythroid leukemia: JRT3T3, a human T-cell lymphoma; and KG 1α, a human mycloid leukemia, were evaluated for their sensitivity to the cytotoxic activity of the phosphonate of the above formula (compound VIII).
# [2] = system: JRT3T3, a human T-cell lymphoma; test: colonogenic cell survival assay; type: cell-based; conditions: 120 h, read-out: Colonies formed after 5-days (% of control)
# Method: as §1, §2
# [3] = system: KG1α, a human myeloid leukemia; test: colonogenic cell survival assay; type: cell-based; conditions: KG-1a, 120 h, read-out: Colonies formed after 5-days (% of control)
# Method: as §1, §2
# [4] = system: LLC tumor cells (Lewis Lung carcinoma); test: colonogenic cell survival assay; type: cell-based; conditions: Mus musculus, 120 h, read-out: Colonies formed after 5 days (% of control)
# Method: as §1
# Lewis Lung carcinoma (LLC), a cancer cell linc derived from […] of mice, was evaluated for its sensitivity to the cytotoxic activity of phosphonates of the following structure using the colonogenic cell survival assay (described above): [drawing 19]
# [5] = system: HT-29 (human colorectal cancer); test: colonogenic cell survival assay; type: cell-based; conditions: 120 h, read-out: Colonies formed (% of control)
# Method: as §1
# (§3) The anti-cancer activity of the phosphonate compound of the formula shown above (compound VIII) was examined in human melanoma and colorectal tumor cell lines using the colonogenic cell survival assay (described above). RPMI-7951 (human melanoma) and HT-29 (human colorectal cancer) tumor cell lines were evaluated for their sensitivity to the cytotoxic activity of the above phosphonate (compound VIII).
# [6] = system: RPMI-7951 (human melanoma); test: colonogenic cell survival assay; type: cell-based; conditions: 120 h, read-out: Colonies formed (% of control)
# Method: as §1, §3
# [7] = system: L1210 (B-cell lymphoma) cells; test: survival of CD1 mice injected with L1210 lymphoma cells; type: in vivo; conditions: 10 mg/kg per day IM
# Method: The effects of phosphonates in a mouse model of lymphoma were also studied. Mice (CD 1) were injected with 1×10^6 L1210 (B-cell lymphoma) cells intraperitoneally. In one group the mice received the phosphonate compound of the following formula at 10 mg/kg per day intramuscularly, while a second group of mice received no treatment: [drawing 18]
# B-16/F10 melanoma cells = test: B-16/F10 melanoma metastasis in C57BL/6 mice; type: in vivo; conditions: 10 mg/kg IM (5 days/week for 2 weeks)
# Method: Highly metastatic B-16/F10 melanoma cells were injected into the tail veins of female C57BL/6 mice (1×10^5 cells per mouse). Treatment of one group of mice with the phosphonate compound of the above formula (compound VIII), dissolved into 0.5mL ethanol, 0.5 mL cremaphor and 9.0 mL phosphate buffered saline, began three days after the tumor cells were injected. lntramuscular injections of 0.2 mL of the phosphonate emulsion (10 mg/kg/day) were given for 5 days per week for 2 weeks. A second group of mice were treated with Adriamycin (10 mg/kg given intravenously on days 0, 4 and 8) as a known anti-cancer drug control group, while a third group of mice received the vehicle emulsion alone. The mice were examined every day for general health, behaviour and body weight. Counts of metastatic melanomic tumor colonies found in the lungs, general observations of metastasis to distant organs and examination of organs (liver, kidneys, lungs and spleen) were taken at autopsy 4 weeks after treatment.
# [8] = system: 2008 (human ovarian cancer); test: cytotoxicity IC50 (3H-thymidine uptake, colonogenic cell survival and MTT assays); type: cell-based
# Excerpt: (§4) A combination of ^3 H-Thymidine incorporation assay, colonogenic cell survival assay and MTT assay was used to determine cytotoxicity data of phosphonates in several mouse and human tumor cell lines.
# [9] = system: HCT-116 (human rectal cancer); test: as above; type: cell-based
# Excerpt: as §4
# [10] = system: HT29 (human colon cancer); test: as above; type: cell-based; conditions: HT-29
# Excerpt: as §4
# [11] = system: L1210 (mouse B-cell lymphoma); test: as above; type: cell-based
# Excerpt: as §4
# [12] = system: LLC (mouse Lewis lung carcinoma); test: as above; type: cell-based
# Excerpt: as §4
# [13] = system: MCF-7 (human breast cancer); test: as above; type: cell-based; conditions: MCF7
# Excerpt: as §4
# [14] = system: MeWo (human melanoma cancer); test: as above; type: cell-based
# Excerpt: as §4
# [15] = system: P388 (mouse monocytic leukemia); test: as above; type: cell-based
# Excerpt: as §4
# [16] = system: P388 DR (drug resistant P388); test: as above; type: cell-based; conditions: Mus musculus
# Excerpt: as §4
# [17] = system: RPMI (advanced human melanoma); test: as above; type: cell-based
# Excerpt: as §4
# [18] = system: WEHI-3B (mouse granulocytic leukemia); test: as above; type: cell-based; conditions: WEHI3B
# Excerpt: as §4
structure (smiles),measurement,setting,value
CCCCCCCCCCCCCCCCOCC(CCP(=O)([O-])OCC[N+](C)(C)C)OC (stereo not shown) [compound VIII],activity at 1.25 µM,[1]; 1.25 μM,91 ± 8%
same,activity at 2.5 µM,[1]; 2.5 μM,72 ± 5%
same,activity at 5 µM,[1]; 5 μM,58 ± 4%
same,activity at 10 µM,[1]; 10 μM,26 ± 5%
same,activity at 20 µM,[1]; 20 μM,12 ± 3%
same,activity at 40 µM,[1]; 40 μM,1 ± 0.5%
same,activity at 1.25 µM,[2]; 1.25 μM,87 ± 6%
same,activity at 2.5 µM,[2]; 2.5 μM,65 ± 7%
same,activity at 5 µM,[2]; 5 μM,34 ± 5%
same,activity at 10 µM,[2]; 10 μM,20 ± 3%
same,activity at 20 µM,[2]; 20 μM,8 ± 2%
same,activity at 40 µM,[2]; 40 μM,3 ± 1%
same,activity at 1.25 µM,[3]; 1.25 μM,78 ± 8%
same,activity at 2.5 µM,[3]; 2.5 μM,56 ± 6%
same,activity at 5 µM,[3]; 5 μM,41 ± 4%
same,activity at 10 µM,[3]; 10 μM,15 ± 3%
same,activity at 20 µM,[3]; 20 μM,7 ± 1%
same,activity at 40 µM,[3]; 40 μM,4 ± 1%
same,activity at 1.25 µM,[4]; 1.25 μM,97 ± 9%
same,activity at 2.5 µM,[4]; 2.5 μM,81 ± 6%
same,activity at 5 µM,[4]; 5 μM,67 ± 5%
same,activity at 10 µM,[4]; 10 μM,53 ± 4%
same,activity at 20 µM,[4]; 20 μM,37 ± 5%
same,activity at 40 µM,[4]; 40 μM,19 ± 6%
same,activity at 2.5 µM,[5]; 2.5 μM,74%
same,activity at 5 µM,[5]; 5 μM,51%
same,activity at 10 µM,[5]; 10 μM,22%
same,activity at 20 µM,[5]; 20 μM,8%
same,activity at 40 µM,[5]; 40 μM,0%
same,activity at 2.5 µM,[6]; 2.5 μM,68%
same,activity at 5 µM,[6]; 5 μM,43%
same,activity at 10 µM,[6]; 10 μM,13%
same,activity at 20 µM,[6]; 20 μM,3%
same,activity at 40 µM,[6]; 40 μM,0%
same,% Survival,[7]; day 0 after injection of L1210 cells,100%
same,% Survival,[7]; day 7 after injection of L1210 cells,100%
same,% Survival,[7]; day 8 after injection of L1210 cells,100%
same,% Survival,[7]; day 19 after injection of L1210 cells,100%
same,% Survival,[7]; day 21 after injection of L1210 cells,100%
same,deaths among treated animals (in words),[7]; up to 21 days of observation,None of the phosphonate-treated (compound VIII) animals died
same,melanomic metastasis to distant organs at autopsy (in words),B-16/F10 melanoma cells,no traces of melanomic metastasis to distant organs were evident in five of six animals
same,Melanomic tumor colonies found in the lungs at autopsy,B-16/F10 melanoma cells; Mouse 1,2
same,Melanomic tumor colonies found in the lungs at autopsy,B-16/F10 melanoma cells; Mouse 2,0
same,Melanomic tumor colonies found in the lungs at autopsy,B-16/F10 melanoma cells; Mouse 3,1
same,Melanomic tumor colonies found in the lungs at autopsy,B-16/F10 melanoma cells; Mouse 4,0
same,Melanomic tumor colonies found in the lungs at autopsy,B-16/F10 melanoma cells; Mouse 5,0
same,Melanomic tumor colonies found in the lungs at autopsy,B-16/F10 melanoma cells; Mouse 6,3
same,IC50,[8],27.8 µM
same,IC50,[9],12 µM
same,IC50,[10],9 µM
same,IC50,[11],5 µM
same,IC50,[12],10.6 µM
same,IC50,[13],35.3 µM
same,IC50,[14],15.7 µM
same,IC50,[15],4.5 µM
same,IC50,[16],5 µM
same,IC50,[17],9 µM
same,IC50,[18],2.5 µM
